# Results as given in patent publication US20220040180A1, “KITS AND METHODS FOR TREATING CANCERS” (Spectrum Pharmaceuticals, Inc., priority 2018, published 2022).
# How the values were obtained:
# Assay type in all cases: physicochemical
# [1] = Behaviour under long-term, accelerated and harsh storage conditions (moisture absorption, stability of form)
# [2] = Dynamic vapor sorption (DVS) hygroscopicity
# Experimental: Dynamic Vapor Sorption (DVS) analysis was conducted on the DVS advantage (Surface measurement system, United Kingdom) analyzer at 25° C. and relative humidity of 0-90%.
# 10 mg of sample was placed in the wire mesh steam sorption balance pan and attached to the DVS-advantage dynamic vapor adsorption balance by the Surface Measurement Systems. […] After the completion of the sorption cycle, the sample was dried using the same procedure, during which the relative humidity was returned to a relative humidity […] all the time. The change in weight during the sorption/desorption cycle (repetition of 3 times) was recorded to determine the hygroscopicity of the sample.
# [3] = Test Example 1: comparative solubility of amorphous and crystalline hydrochloride salt forms (HPLC); settings: 25° C., loading of 1.0 mg/mL; for Solubility, Water: LOD 0.1 μg/mL
# Experimental: To compare the solubility of amorphous hydrochloride salt form and crystalline hydrochloride salt polymorphs, each of the polymorphs and amorphous form of the hydrochloride salt of the compound of chemical formula (1) prepared in Examples 4 to 6 was used to prepare samples under the following conditions according to non-ionized water and acidity (pH). Thereafter, each solution was analyzed by high performance liquid chromatography (HPLC) according to the measurement conditions of the content of the compound of chemical formula (1) to measure the dissolved amount (LOD: 0.1 μg/mL) based on the compound of chemical formula (1).
# Specifically, 5 mg of each polymorph was added to 5 ml of water and mixed using a Voltamixer at 20-25° C. Thereafter, the filtrate obtained by filtrating using GH Polypro membrane Acrodisc, PALL (pore size 0.2 μm) was diluted with a dilution solvent for high performance liquid chromatography (HPLC) at a ratio of 1/100, to obtain the samples.
# [4] = Test Example 2: comparative storage stability of hydrochloride salt forms, purity by HPLC
# Experimental: High performance liquid chromatography (HPLC) was conducted on the Agilent 1100/1200 series HPLC Systems (Agilent, USA) analyzer for the purpose of purity and content analysis including stability test and the like. The analysis conditions of the HPLC are as follows.
# To compare the stability of amorphous hydrochloride salt form and crystalline hydrochloride salt polymorphs, each of samples of the polymorphs and amorphous form of the hydrochloride salt of the compound of chemical formula (1) prepared in Examples 4 to 6 was left for 4 weeks under long term conditions (e.g., temperature of 25±2° C. and relative humidity of 60±5%) and accelerated conditions (e.g., temperature of 40° C. and relative humidity of 75%). Each sample was analyzed by high performance liquid chromatography (HPLC) according to the purity measurement conditions of the compound of chemical formula (1).
# [5] = Solubility in water of the compound of chemical formula (1); settings: amorphous free base
# [6] = relative humidity range of 10-90%, 25° C.
# [7] = 25 ± 2° C., 60 ± 5% RH, listed as HCl cryst. hydrate
# [8] = 40 ± 2° C., 75 ± 5% RH, listed as HCl cryst. hydrate
# [9] = 25 ± 2° C., 60 ± 5% RH, listed as HCl cryst. anhydrate
# [10] = 40 ± 2° C., 75 ± 5% RH, listed as HCl cryst. anhydrate
smiles,measurement,setting,value
"C=CC(=O)N1CCC(Oc2cc3c(Nc4ccc(Cl)c(Cl)c4F)ncnc3cc2OC)CC1 [Example 3, 1-(4-(4-(3,4-dichloro-2-fluorophenylamino)-7-methoxyquinazolin-6-yloxy)piperidin-1-yl)prop-2-en-1-one]",stability of the crystalline form on storage,"[1]; long-term (25° C., 60% RH), accelerated (40° C., 75% RH) and harsh (60° C.) conditions",sufficiently stable
same,hygroscopic degree (DVS),"[2]; relative humidity range of 0-90%, listed as crystalline anhydrous Form II",very low
same,hygroscopic degree (DVS),[2]; [6],about 0.7%
"C=CC(=O)N1CCC(Oc2cc3c(Nc4ccc(Cl)c(Cl)c4F)ncnc3cc2OC)CC1 [Example 4, 1-(4-(4-(3,4-dichloro-2-fluorophenylamino)-7-methoxyquinazolin-6-yloxy)piperidin-1-yl)prop-2-en-1-one]","Solubility, pH 1.2",[3]; listed as HCl cryst. hydrate,5 μg/mL
same,"Solubility, pH 2.0",[3]; listed as HCl cryst. hydrate,7 μg/mL
same,"Solubility, pH 4.0",[3]; listed as HCl cryst. hydrate,48 μg/mL
same,"Solubility, Water",[3]; listed as HCl cryst. hydrate,<LOD
same,"Purity (HPLC, %) 3 days",[4]; [7],99.2%
same,"Purity (HPLC, %) Start",[4]; [7],99.2%
same,"Purity (HPLC, %) Week 1",[4]; [7],99.2%
same,"Purity (HPLC, %) Week 2",[4]; [7],99.1%
same,"Purity (HPLC, %) Week 4",[4]; [7],99.2%
same,"Purity (HPLC, %) 3 days",[4]; [8],99.3%
same,"Purity (HPLC, %) Start",[4]; [8],99.2%
same,"Purity (HPLC, %) Week 1",[4]; [8],99.2%
same,"Purity (HPLC, %) Week 2",[4]; [8],99.1%
same,"Purity (HPLC, %) Week 4",[4]; [8],99.2%
same,hygroscopic degree (DVS),[2]; [6],about 0.4%
same,hygroscopic degree (DVS),"[2]; relative humidity range of 10-90%, 25° C., listed as crystalline monohydrochloride monohydrate (1HCl.1H2O) form",very low
"C=CC(=O)N1CCC(Oc2cc3c(Nc4ccc(Cl)c(Cl)c4F)ncnc3cc2OC)CC1 [Example 5, 1-(4-(4-(3,4-dichloro-2-fluorophenylamino)-7-methoxyquinazolin-6-yloxy)piperidin-1-yl)prop-2-en-1-one]","Solubility, pH 1.2",[3]; listed as HCl cryst. anhydrate,92 μg/mL
same,"Solubility, pH 2.0",[3]; listed as HCl cryst. anhydrate,140 μg/mL
same,"Solubility, pH 4.0",[3]; listed as HCl cryst. anhydrate,74 μg/mL
same,"Solubility, Water",[3]; listed as HCl cryst. anhydrate,20 µg/mL
same,"Purity (HPLC, %) 3 days",[4]; [9],99.4%
same,"Purity (HPLC, %) Start",[4]; [9],99.4%
same,"Purity (HPLC, %) Week 1",[4]; [9],99.4%
same,"Purity (HPLC, %) Week 2",[4]; [9],99.5%
same,"Purity (HPLC, %) Week 4",[4]; [9],99.5%
same,"Purity (HPLC, %) 3 days",[4]; [10],99.4%
same,"Purity (HPLC, %) Start",[4]; [10],99.4%
same,"Purity (HPLC, %) Week 1",[4]; [10],99.4%
same,"Purity (HPLC, %) Week 2",[4]; [10],99.5%
same,"Purity (HPLC, %) Week 4",[4]; [10],99.5%
same,moisture absorption on storage,"[1]; 25° C., 60% relative humidity and 40° C., 75% relative humidity",did not absorb moisture
same,hygroscopic degree (DVS),[2]; [6],about 0.35%
same,hygroscopic degree (DVS),"[2]; relative humidity range of 10-90%, 25° C., listed as crystalline anhydrous monohydrochloride (1HCl) form",very low
"C=CC(=O)N1CCC(Oc2cc3c(Nc4ccc(Cl)c(Cl)c4F)ncnc3cc2OC)CC1 [Example 6, 1-(4-(4-(3,4-dichloro-2-fluorophenylamino)-7-methoxyquinazolin-6-yloxy)piperidin-1-yl)prop-2-en-1-one]","Solubility, pH 1.2",[3]; listed as HCl amorphous,274 μg/mL
same,"Solubility, pH 2.0",[3]; listed as HCl amorphous,213 μg/mL
same,"Solubility, pH 4.0",[3]; listed as HCl amorphous,34 μg/mL
same,"Solubility, Water",[3]; listed as HCl amorphous,53 µg/mL
"C=CC(=O)N1CCC(Oc2cc3c(Nc4ccc(Cl)c(Cl)c4F)ncnc3cc2OC)CC1 [Reference Example, 1-(4-(4-(3,4-dichloro-2-fluorophenylamino)-7-methoxyquinazolin-6-yloxy)piperidin-1-yl)prop-2-en-1-one]",hygroscopic degree (DVS),[2]; [6],1-3%
same,solubility,[5],< 1 µg/mL
